# Values quoted from earlier work, collected in patent US20150272920A1, “METHOD FOR TREATING OBESITY WITH ANTI-OBESITY FORMULATIONS AND OMEGA 3 FATTY ACIDS FOR THE REDUCTION OF BODY WEIGHT IN CARDIOVASCULAR DISEASE PATIENTS (CVD) AND DIABETICS” (PIVOTAL THERAPEUTICS INC., priority 2014, published 2015).
# Molecular target: CB1R (Homo sapiens, UniProt P21554)
# Settings: in vivo
# CB1R, sequence (P21554 whole entry): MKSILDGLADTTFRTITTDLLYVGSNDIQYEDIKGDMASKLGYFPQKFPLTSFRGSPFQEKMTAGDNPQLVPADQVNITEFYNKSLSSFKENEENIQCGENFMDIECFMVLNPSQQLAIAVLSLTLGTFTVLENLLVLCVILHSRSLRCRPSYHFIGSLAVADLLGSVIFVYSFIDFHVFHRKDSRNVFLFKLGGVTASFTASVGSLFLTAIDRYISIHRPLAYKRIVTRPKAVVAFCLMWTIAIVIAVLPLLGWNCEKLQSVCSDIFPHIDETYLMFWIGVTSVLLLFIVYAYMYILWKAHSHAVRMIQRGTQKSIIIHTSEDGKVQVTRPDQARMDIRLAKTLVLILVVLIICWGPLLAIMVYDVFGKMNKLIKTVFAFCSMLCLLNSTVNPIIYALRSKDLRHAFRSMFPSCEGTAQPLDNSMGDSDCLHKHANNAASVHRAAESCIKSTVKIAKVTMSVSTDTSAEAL
smiles,measurement,value
"CCNC1(C(N)=O)CCN(c2ncnc3c2nc(-c2ccccc2Cl)n3-c2ccc(Cl)cc2)CC1.Cl [CP-945,598]",Reason for failure of phase III clinical trials (adverse reactions),"psychiatric adverse reactions, including severe depression and anxiety"
